From US10670600B2, “Saposin-A derived peptides and uses thereof” (CHILDREN'S MEDICAL CENTER CORPORATION, priority 2007, dated 2020) come the findings set out here.

Bridge positions count the residues as written; N and C are the ends. Ends that are not written are not given here.

One test relates to Psap in PC3-MycER cells. As to the kind of experiment: Psap levels in PC3-MycER cells, western blot. The class given is cell-based, human. The note with it: induction of Myc function. As for the experimental part: For Western blotting, cells were harvested by mechanical scraping into 4° C. PBS, cell pellets were obtained by removing PBS after centrifugation at 13,000 rpm in a Heraeus Biofuge Fresco (Thermo Electron, Asheville, N.C.) for 2 min. Cells were then lysed in 50 mM Tris-HCl (pH 7.4), 150 mM NaCl, 1% NP40, 1 mM sodium orthovanadate, 5 mM NaF, 20 mM β-glycerophosphate, and complete protease inhibitor (Roche, Indianapolis, Ind.) and protein concentrations were determined by the BioRad protein assay (BioRad, Hercules, Calif.). Fifty micrograms of protein were loaded per well onto a 4-12% pre-cast Bis-Tris gel (BioRad, Hercules, Calif.). The protein extracts were electrophoresed and transferred to an immobilon-P membrane (Millipore, Bedford, Mass.). The membranes were blocked in 5% nonfat milk and incubated in primary antibody to Tsp-1 (Ab-11, LabVision, Fremont, Calif.), c-Myc and phospho-Myc (Cell Signaling Technology, Beverly, Mass.), Prosaposin (Santa Cruz Biotechnology, Santa Cruz, Calif.), β-actin (AbCam, Cambridge, UK). The membranes were then washed in PBS+0.1% Tween-20 and incubated with either HRP-conjugated goat anti-mouse or anti-rabbit secondary antibody (Jackson Immunoresearch Laboratories, West Grove, Pa.) followed by another wash. […] Protein volume intensity was determined using a Bio-Rad Chemi-Doc XRS system (Bio-Rad, CA). […]
On the technique in general: A western blot detects proteins with antibodies after separation by electrophoresis.

Test [1] relates to Tsp-1 expression in WI-38 lung fibroblasts. The test can be described thus: Tsp-1 expression in WI-38 lung fibroblasts, western blot. The class given is cell-based, human. As for the experimental part: (§1) For the conditioned media assay, 1.5×10^6 tumor cells and fibroblasts cells were grown in the tumor cell media containing 0.1% FBS for 12 hours at which point the conditioned media from the tumor cells was centrifuged to remove any cells or cell debris and transferred to the fibroblasts subsequent to removal of the low serum fibroblast growth media. All assays were performed a minimum of five times and representative samples depicted. The fibroblasts and media were harvested after 12 to 16 hours after addition of the tumor cell conditioned media and lysed for the western blot analysis while the conditioned media was collected for ELISA analysis. For the co-culture assays, 1×10^6 fibroblasts were seeded in the bottom chamber of transwell tissue culture plates (Corning Inc., Corning, N.Y.) and 1×10^6 tumor cells were seeded on the membrane in the top chamber of the plates. The two cell types were co-cultured for 40 to 44 hours in tumor cell media containing 0.1% FBS before harvesting and lysing the fibroblasts for western blot analysis and collecting the media for ELISA analysis.
For Western blotting, cells were harvested by mechanical scraping into 4° C. PBS, cell pellets were obtained by removing PBS after centrifugation at 13,000 rpm in a Heraeus Biofuge Fresco (Thermo Electron, Asheville, N.C.) for 2 min. Cells were then lysed in 50 mM Tris-HCl (pH 7.4), 150 mM NaCl, 1% NP40, 1 mM sodium orthovanadate, 5 mM NaF, 20 mM β-glycerophosphate, and complete protease inhibitor (Roche, Indianapolis, Ind.) and protein concentrations were determined by the BioRad protein assay (BioRad, Hercules, Calif.). Fifty micrograms of protein were loaded per well onto a 4-12% pre-cast Bis-Tris gel (BioRad, Hercules, Calif.). The protein extracts were electrophoresed and transferred to an immobilon-P membrane (Millipore, Bedford, Mass.). The membranes were blocked in 5% nonfat milk and incubated in primary antibody to Tsp-1 (Ab-11, LabVision, Fremont, Calif.), c-Myc and phospho-Myc (Cell Signaling Technology, Beverly, Mass.), Prosaposin (Santa Cruz Biotechnology, Santa Cruz, Calif.), β-actin (AbCam, Cambridge, UK). The membranes were then washed in PBS+0.1% Tween-20 and incubated with either HRP-conjugated goat anti-mouse or anti-rabbit secondary antibody (Jackson Immunoresearch Laboratories, West Grove, Pa.) followed by another wash. The membrane was then developed with ECL reagent (Pierce, Rockford, Ill.) and exposed on film. Protein volume intensity was determined using a Bio-Rad Chemi-Doc XRS system (Bio-Rad, CA). […]
Seven 20-amino acid (20-mer) peptides derived from saposin A were tested for ability to stimulate Tsp-1 expression in fibroblasts. […] WI-38 lung fibroblasts were treated with these peptides overnight and the Tsp-1 expression was analyzed by Western blot analysis. […]

Another test relates to p53 in WI-38 fibroblasts. The test can be described thus: p53 expression in WI-38 fibroblasts, western blot. The class given is cell-based, human.
The test system of test [2] is MDM2 in WI-38 fibroblasts. The test can be described thus: MDM2 protein levels in WI-38 fibroblasts, western blot. The test is classed as cell-based, human.
Test [3] concerns Tsp-1 expression in prostate fibroblasts. As to the kind of experiment: Tsp-1 expression in prostate fibroblasts, western blot. The test is classed as cell-based, human. The note with it: for stimulation of Tsp-1 by PC3 conditioned media in the presence of inhibitor: prostate fibroblasts treated with PC3 CM plus inhibitor. As to the method:
(§2) Methods of assaying the effects of mutant, fragment or variant Psap on Tsp-1 and p53 expression are described herein. Briefly, full-length, mutant, fragment and variant Psap are applied to the cell cultures prostate fibroblast. The conditioned media from PC3M-LN4 (LN4) and PC3 cells are used as controls, with PC3 as positive/stimulating control and LN4 as negative/inhibiting controls. After a period of included (˜16 h), the cells are harvested, rinsed, and lysed. The lysates are analyzed for the level of Tsp-1 and p53 expression by western blot analyses, with β-actin as the internal lysate protein loading control.
as §1
For Western blotting, cells were harvested by mechanical scraping into 4° C. PBS, cell pellets were obtained by removing PBS after centrifugation at 13,000 rpm in a Heraeus Biofuge Fresco (Thermo Electron, Asheville, N.C.) for 2 min. Cells were then lysed in 50 mM Tris-HCl (pH 7.4), 150 mM NaCl, 1% NP40, 1 mM sodium orthovanadate, 5 mM NaF, 20 mM β-glycerophosphate, and complete protease inhibitor (Roche, Indianapolis, Ind.) and protein concentrations were determined by the BioRad protein assay (BioRad, Hercules, Calif.). Fifty micrograms of protein were loaded per well onto a 4-12% pre-cast Bis-Tris gel (BioRad, Hercules, Calif.). The protein extracts were electrophoresed and transferred to an immobilon-P membrane (Millipore, Bedford, Mass.). […] Protein volume intensity was determined using a Bio-Rad Chemi-Doc XRS system (Bio-Rad, CA).

Test [4] relates to p53 expression in prostate fibroblasts. As to the kind of experiment: p53 expression in prostate fibroblasts, western blot. The class given is cell-based, human. As to the method: as §2, with “control. […]” for “control.”
For Western blotting, cells were harvested by mechanical scraping into 4° C. […] Cells were then lysed in 50 mM Tris-HCl (pH 7.4), 150 mM NaCl, 1% NP40, 1 mM sodium orthovanadate, 5 mM NaF, 20 mM β-glycerophosphate, and complete protease inhibitor (Roche, Indianapolis, Ind.) and protein concentrations were determined by the BioRad protein assay (BioRad, Hercules, Calif.). […] Protein volume intensity was determined using a Bio-Rad Chemi-Doc XRS system (Bio-Rad, CA).
Having determined that p53 protein levels were elevated in the stroma of PC3 tumors, the inventors determined if p53 stimulation could be responsible for the increased expression of Tsp-1. […]

The test system of a further test is thrombospondin-1 (Tsp-1). As to the kind of experiment: Tsp-1 expression in lungs and livers of treated mice, western blot. The class given is in vivo. As to the method: The 20-mer […] (SEQ. ID. No. 29) was tested in vivo in mice for their ability to induce Tsp-1 expression. Four mice were treated with the 20-amino acid peptide (residues 31-50 of saposin A) at a dose of 30 mg/kg/day in combination with 200 μL of conditioned media (CM) from the metastatic prostate cancer cell line PC3M-LN4. […] Another four mice were treated with CM from PC3M-LN4 alone, and a control group of four mice with treated with vehicle (PBS) alone. […] Mice were treated for 9 days after which they were sacrificed and the lungs and livers were harvested and lysed. Tissue lysates were then run on a 4-12% gradient bis-tris polyacrylamide gel and transferred to a nitrocellulose membrane for western blotting with antibodies specific for thrombospondin-1 (Tsp-1) and β-actin.

The next test concerns semaphorin 3F. The test can be described thus: semaphorin 3F mRNA in WI-38 fibroblasts, real time RT-PCR. The test is classed as cell-based, human. Particulars: conditioned media of cells with or without prosaposin, relative to GAPDH. As for the experimental part: FIG. 25. mRNA levels of semaphorin 3F, relative to GAPDH, in WI-38 fibroblasts that were untreated (NoTxPrSc) treated with conditioned media from PC3, PC3-shprosaposin (PC3-sh), PC3M-LN4 (LN4) and PC3M-LN4 cells ectopically expressing prosaposin (LN4Psap) as determined by real time RT-PCR.
Finally, it was determined that prosaposin stimulates the expression of semaphorin 3F, a transcriptional target of p53 and an inhibitor of metastasis and lymphangiogenesis, at the mRNA level (FIG. 25).
(In general: Quantitative PCR measures a nucleic acid by following its amplification.)

[5] abbreviates: WI-38 fibroblasts, in the presence of the cyclic 13-mer.
[6] abbreviates: WI-38 lung fibroblasts treated with peptide.
Where [7] appears, read: WI-38 fibroblasts treated with peptide.
Setting [8] is: mice treated for 9 days, versus control.
Where [9] appears, read: mice, 30 mg/kg/day with 200 μL PC3M-LN4 CM, 9 days, compared to PC3M-LN4 CM.

Regarding 4-hydroxy-tamoxifen [4-HT], the “reduction in Psap levels” value with Psap in PC3-MycER cells worked out at 4 fold.
As for `NC(=O)c1ccc(-c2nc(-c3ccc4c(c3)OCCO4)c(-c3ccccn3)[nH]2)cc1` [D4476, reference compound], the “Tsp-1 protein level (in words)” value in test [1] (setting [5]) was “reduction”. The “p53 protein level (in words)” value in the test with p53 in WI-38 fibroblasts (setting [5]) is reported as “reduction”. Moreover, the “MDM2 protein level (in words)” value in test [2] (setting [5]) was “increase”.
As to `COc1ccc2c(c1)c(C1=C(c3c[nH]c4ccccc34)C(=O)NC1=O)cn2CCCN(C)C` [GO 6983, reference compound], the “stimulation of Tsp-1 by PC3 conditioned media in the presence of inhibitor” value in test [3] is given as “abolished”. Further, in test [4] (prostate fibroblasts treated with PC3 CM plus inhibitor), the “stimulation of p53 by PC3 conditioned media in the presence of inhibitor” value is given as “abolished”.
Take “CDWLPKPNMSASC (disulfide 1-13) [SEQ. ID. No. 37, cyclic 13 amino acid peptide, residues 35-47 of saposin A]”: the “Tsp-1 expression (in words)” value in test [1] (setting [6]) is listed as “sufficient to stimulate”. In addition, the “p53 expression (in words)” value with p53 in WI-38 fibroblasts (setting [7]) was “sufficient to stimulate”. Also, the “MDM2 protein level (in words)” value in test [2] (setting [7]) is listed as “down regulation”.
With “LEKTCDWLPKPNMSASCKEI [SEQ. ID. No. 29, 20-mer, residues 31-50 of saposin A]”, in test [1] (setting [6]), the “Tsp-1 expression (in words)” value is listed as “able to stimulate”. In addition, in the test on thrombospondin-1 (Tsp-1) (mice treated for 9 days, lung and liver), the “level of Tsp-1 stimulation relative to PC3 conditioned media” value was “greater”. Besides, in the test with thrombospondin-1 (Tsp-1) (setting [8]), the “Tsp-1 expression in the liver (in words)” value is “stimulated” and the “Tsp-1 expression in the lung (in words)” value is “stimulated”. In the test on thrombospondin-1 (Tsp-1) (setting [9]), the “stimulation of Tsp-1 expression in the liver” value was 4 fold and the “stimulation of Tsp-1 expression in the lung” value is reported as 6 fold.

B1: SLPCDICKDVVTAAGDMLKDNATEEEILVYLEKTCDWLPKPNMSASCKEIVDSYLPVILDIIKGEMSRPGEVCSALNLCES (protein, listed as Homo sapiens)
chain: SLPCDICKDVVTAAGDMLKDNATEEEILVYLEKTCDWLPKPNMSASCKEIVDSYLPVILDIIKGEMSRPGEVCSALNLCES
notes: cleavage product of Psap, expressed as truncation mutant
As to B1, the “stimulation of Tsp-1 (in words)” value in test [3] (prostate fibroblasts, conditioned media of PC3M-LN4 cells transfected with truncation mutants) is given as “minimal domain that is functionally required for the stimulation of Tsp-1”. Moreover, the “Tsp-1 expression (in words)” value in test [1] (lung fibroblasts, CM from PC3M-LN4 cells transduced with truncated mutants of prosaposin) is given as “sufficient to stimulate”.

B2: prosaposin: saposin precursor protein, purified from PC3M-LN4 conditioned media with Talon metal affinity resin (protein, listed as Homo sapiens)
chain: MYALFLLASLLGAALAGPVLGLKCTRGSAVWCQNVKTASDCGAVKHCLQTVWNKPTVKSLPCDICKDVVTAAGDMLKDNATILVYLKTCDWLPKPNMSASCKIVDSYLPVILDIIKGMSRPGVCSALNLCSLQKHLALNHQKQLSNKIPLDMTVVAPFMANIPLLLYPQDGPRSKPQPKDNGDVCQDCIQMVTDIQTAVRTNSTFVQALVHVKCDRLGPGMADICKNYISQYSIAIQMMMHMQPKICALVGFCDVKMPMQTLVPAKVASKNVIPALLVPIKKHVPAKSDVYCVCFLVKVTKLIDNNKTKILDAFDKMCSKLPKSLSCQVVDTYGSSILSILLVSPLVCSMLHLCSGTRLPALTVHVTQPKDGGFCVCKKLVGYLDRNLKNSTKQILAALKGCSFLPDPYQKQCDQFVAYPVLIILVVMDPSFVCLKIGACPSAHKPLLGTKCIWGPSYWCQNTTAAQCNAVHCKRHVWN
Regarding B2, the “stimulation of Tsp-1 expression” value in test [3] (prostate fibroblasts, western blot, band volume density, purified Psap 5 μg) is on record as approximately 5 fold. In addition, the “p53 expression (in words)” value in test [4] (prostate fibroblasts, western blot) is on record as “stimulated”. Moreover, in the test on semaphorin 3F, the “expression of semaphorin 3F at the mRNA level” value is “stimulates”.

B3: RAP: Receptor Associate Protein, a competitive inhibitor of LRP binding (protein)
chain: YSREKNQPKPSPKRESGEEFRMEKLNQLWEKAQRLHLPPVRLAELHADLKIQERDELAWKKLKLDGLDEDGEKEARLIRNLNVILAKYGLDGKKDARQVTSNSLSGTQEDGLDDPRLEKLWHKAKTSGKFSGEELDKLWREFLHHKEKVHEYNVLLETLSRTEEIHENVISPSDLSDIKGSVLHSRHTELKEKLRSINQGLDRLRRVSHQGYSTEAEFEEPRVIDLWDLAQSANLTDKELEAFREELKHFEAKIEKHNHYQKQLEIAHEKLRHAESVGDGERVSRSREKHALLEGRTKELGYTVKKHLQDLSGRISRARHNEL
For B3, the “stimulation of Tsp-1 by PC3 conditioned media in the presence of inhibitor” value in test [3] is recorded as “no longer stimulated”.
